From publication PMC6736360, “P-Glycoprotein–Mediated Efflux Reduces the In Vivo Efficacy of a Therapeutic Targeting the Gastrointestinal Parasite Cryptosporidium” (The Journal of Infectious Diseases, 2019)
Where two headings read alike, the source gives them in different places.

Experiment: Mouse gastrointestinal tissue pharmacokinetics
Type: in vivo, mice
Details: for AUC(0-t) / Cmax / Tmax: mouse, po
Method: At multiple time points following BKI1318 administration, mice were euthanized, and the GI tract was separated into segments corresponding to the duodenum, jejunum, ileum, and cecum/colon. […] At 0.5, 1, 2, 4, 8, and 12 hours, three mice in each group were sacrificed by cervical dislocation, and the duodenum, jejunum, ileum, and cecum/ascending colon were immediately collected. Each section of the GI tract was flushed with Dulbecco's phosphate-buffered saline, weighed, and placed in storage at -80°C. On the day of homogenization, 0.9% NaCl was added to each sample to achieve 200 mg/mL tissue concentration. Samples were homogenized using a handheld motorized homogenizer (Fisher Scientific, Waltham, MA) on ice and stored at -20°C until extraction and analysis. To report tissue concentrations, 1 gram of tissue was estimated to be 1 mL of volume.

- Effect of elacridar on levels in the cecum/colon (mice, cecum/colon tissue): did not significantly affect
- Increase of duodenum exposure when elacridar administered before (mice, duodenum tissue, P < .05): approximately 2 fold
- Increase of ileum exposure when elacridar administered before (mice, ileum tissue, P < .05): approximately 3 fold
- Increase of jejunum exposure when elacridar administered before (mice, jejunum tissue, P < .05): approximately 2 fold
- AUC(0-t) (cecum/colon, 30 mg/kg, Cecum/Colon, BKI 1318 alone, read-out: AUC0-12): 109 µM·h
- Cmax (cecum/colon, 30 mg/kg, Cecum/Colon, BKI 1318 alone, read-out: Observed Cmax): 14.4 µM
- Tmax (cecum/colon, 30 mg/kg, Cecum/Colon, BKI 1318 alone, read-out: Tmax): 9.3 h
- AUC(0-t) (cecum/colon, Cecum/Colon, with elacridar, read-out: AUC0-12 w/ Elacridar): 65.5 ± 4 µM·h
- Cmax (cecum/colon, Cecum/Colon, with elacridar, read-out: Cmax w/ Elacridar): 8.2 ± 0.3 µM
- Tmax (cecum/colon, Cecum/Colon, with elacridar, read-out: Tmax w/ Elacridar): 7.3 ± 4.1 h
- AUC(0-t) (duodenum, Duodenum, BKI 1318 alone, read-out: AUC0-12): 235 µM·h
- Cmax (duodenum, Duodenum, BKI 1318 alone, read-out: Observed Cmax): 77.2 µM
- Tmax (duodenum, Duodenum, BKI 1318 alone, read-out: Tmax): 0.5 h
- AUC(0-t) (duodenum, Duodenum, with elacridar, P≤0.001, read-out: AUC0-12 w/ Elacridar): 537 µM·h
- Cmax (duodenum, Duodenum, with elacridar, read-out: Cmax w/ Elacridar): 110 µM
- Tmax (duodenum, Duodenum, with elacridar, read-out: Tmax w/ Elacridar): 0.7 ± 0.2 h
- AUC(0-t) (ileum, 30 mg/kg, Ileum, BKI 1318 alone, read-out: AUC0-12): 336 µM·h
- Cmax (ileum, Ileum, BKI 1318 alone, read-out: Observed Cmax): 79.8 µM
- Tmax (ileum, Ileum, BKI 1318 alone, read-out: Tmax): 4.3 h
- AUC(0-t) (ileum, Ileum, with elacridar, P≤0.05, read-out: AUC0-12 w/ Elacridar): 1150 µM·h
- Cmax (ileum, Ileum, with elacridar, read-out: Cmax w/ Elacridar): 177 µM
- Tmax (ileum, Ileum, with elacridar, read-out: Tmax w/ Elacridar): 2 h
- AUC(0-t) (jejunum, Jejunum, BKI 1318 alone, read-out: AUC0-12): 279 µM·h
- Cmax (jejunum, Jejunum, BKI 1318 alone, read-out: Observed Cmax): 108 µM
- Tmax (jejunum, Jejunum, BKI 1318 alone, read-out: Tmax): 0.8 h
- AUC(0-t) (jejunum, Jejunum, with elacridar, P≤0.05, read-out: AUC0-12 w/ Elacridar): 558 µM·h
- Cmax (jejunum, Jejunum, with elacridar, read-out: Cmax w/ Elacridar): 98.1 µM
- Tmax (jejunum, Jejunum, with elacridar, read-out: Tmax w/ Elacridar): 1.8 ± 1.5 h
SMILES: CCOc1ccc2cc(-c3nn(CC4CCNCC4)c4ncnc(N)c34)ccc2n1 [BKI1318]
